Source: US11020405B2, “Method for prevention or treatment of diabetic complications” (KANGWON NATIONAL UNIVERSITY UNIVERSITY-INDUSTRY COOPERATION …, priority 2017, dated 2021)

Tests used:
[1] = tested on: human retinal endothelial cells (HRECs); assay: Analysis of intracellular Ca^2+ (Fluo4-AM, confocal microscopy); assay type: cell-based; settings: 10 ng/mL VEGF with 5 μM BAPTA-AM, 1 mM NAC, 0.5 μM Trolox, 50 μM cystamine or 20 μM MDC, 30 min (FIG. 2B)
Procedure: (§1) Purchased from Applied Cell Biology Research Institute (Cell Systems, Kirkland, Wash.), human retinal endothelial cells (HRECs) were cultured in an M19 medium, containing 20% FBS, 3 ng/mL bFGF, 5 U/mL heparin, 100 U/mL penicillin and […], in a 2% gelatin-coated plate.
(§2) Before the following Test Examples 2 to 7, the HRECs were cultured for 6 hr in a medium containing 1% FBS and an antibiotic agent, thus preparing HRECs of Test Example 1.
With reference to FIG. 2A, the HRECs of Test Example 1 were subjected to the respective treatments below, stained with 2 μM Fluo4-AM at 37° C. for 30 min and then measured at time intervals of 10 sec using confocal microscopy (FV-300, Olympus, Tokyo, Japan).
With reference to FIG. 2B, the HRECs of Test Example 1 were subjected to the respective treatments below, cultured for 30 min, stained with 2 μM Fluo4-AM at 37° C. for 30 min and then measured at time intervals of 10 sec using confocal microscopy.

[2] = tested on: endothelial monolayer of HRECs; assay: Analysis of cell permeability (FITC-dextran, Transwell); assay type: cell-based, human; settings: HREC monolayer, 10 ng/mL VEGF 90 min with 20 μM midazolam, 5 μM BAPTA-AM, 1 mM NAC, 0.5 μM Trolox, 50 μM cystamine or 20 μM MDC; 40 kDa FITC-dextran 60 min (FIG. 7)
Procedure: The HRECs were cultured (e.g. about 5 days) until the cell confluence thereof reached an appropriate level on gelatin-coated 0.4 μm polycarbonate membranes of Transwell Permeable Supports (Costar, Corning, N.Y.), followed by the respective treatments below and culture for 30 min. Here, treatment with 10 ng/mL VEGF was performed for 90 min. Thereafter, the HRECs were treated with 1 mg/mL 40 kDa FITC-dextran (Sigma-Aldrich), incubated for 60 min, after which the amount of FITC-dextran that was diffused into the lower chamber through the endothelial monolayer of HERCs was measured using a microplate spectrofluorometer (Molecular Devices, Sunnyvale, Calif.).

β-catenin = assay: Analysis of adherens junction (β-catenin staining); assay type: cell-based, human; settings: HRECs, 10 ng/mL VEGF 90 min with 20 μM midazolam, 5 μM BAPTA-AM, 1 mM NAC, 0.5 μM Trolox, 50 μM cystamine or 20 μM MDC (FIGS. 8, 9)
Procedure: as §1, §2
The HRECs of Test Example 1 were subjected to the respective treatments below and cultured for 30 min. Here, treatment with 10 ng/mL VEGF was performed for 90 min. Thereafter, the HRECs were treated with 1 mM 5-(biotinamido)pentylamine, incubated for 1 hr, fixed with 3.7% formaldehyde, treated with 0.2% triton X-100, treated with a blocking solution containing 138 mM NaCl, 0.1% Tween 20 and 2% BSA dissolved in a 20 mM Tris (pH 7.6) buffer, incubated for 30 min, incubated with a monoclonal β-catenin antibody (1:200; Santa Cruz Biotechnology) for 12 hr or more, incubated with a FITC-conjugated goat anti-mouse antibody, and measured using confocal microscopy. Some (the following i), ii), iii), iv)) of the results are shown in FIG. 8, and the β-catenin concentrations in the portions represented by the dotted lines in FIG. 8 are shown in FIG. 9. With reference to FIG. 9, 10 randomly selected cells were measured to determine the fluorescence intensity of single cells and thus quantify β-catenin.
β-catenin, which is a protein that mediates adherens junction like VE-cadherin, was analyzed to evaluate adherens junction.

[3] = tested on: human retinal endothelial cells (HRECs); assay: Analysis of ROS of cells (H2DCFDA fluorescence); assay type: cell-based; settings: 10 ng/mL VEGF with 20 μM midazolam, 5 μM BAPTA-AM, 1 mM NAC, 0.5 μM Trolox, 50 μM cystamine or 20 μM MDC (FIG. 3B)
Procedure: as §1, §2
With reference to FIG. 3A, the HRECs of Test Example 1 were treated with 0 to 20 μM midazolam, cultured for 30 min, treated with 10 ng/mL VEGF and 10 μM H2DCFDA (Molecular Probes, Eugene, Oreg.), stained for 10 min in a phenol-red-free low-serum medium, and then measured using confocal microscopy to thus determine the fluorescence intensity of single cells.
With reference to FIG. 3B, the HRECs of Test Example 1 were subjected to the respective treatments below and cultured for 30 min. Upon treatment with 10 ng/mL VEGF, treatment with 10 μM H2DCFDA was performed therewith, or alternatively, treatment with 10 μM H2DCFDA was performed alone, followed by staining for 10 min in a phenol-red-free low-serum medium and then measurement via confocal microscopy to thus determine the fluorescence intensity of single cells.

VE-cadherin = assay: Analysis of adherens junction (VE-cadherin staining); assay type: cell-based, human; settings: HRECs, 10 ng/mL VEGF 90 min with 20 μM midazolam, 5 μM BAPTA-AM, 1 mM NAC, 0.5 μM Trolox, 50 μM cystamine or 20 μM MDC (FIGS. 5, 6)
Procedure: as §1, §2
The HRECs of Test Example 1 were subjected to the respective treatments below and cultured for 30 min. Here, treatment with 10 ng/mL VEGF was performed for 90 min. Thereafter, the HRECs were treated with 1 mM 5-(biotinamido)pentylamine, incubated for 1 hr, fixed with 3.7% formaldehyde, treated with 0.2% triton X-100, treated with a blocking solution containing 138 mM NaCl, 0.1% Tween 20 and 2% BSA dissolved in a 20 mM Tris (pH 7.6) buffer, incubated for 30 min, incubated with a monoclonal VE-cadherin antibody (1:200; Santa Cruz Biotechnology) for 12 hr or more (overnight), incubated with a FITC-conjugated goat anti-mouse antibody (1:200; Sigma-Aldrich), and then measured using confocal microscopy. Some (the following i), iii), iv), vi), ix)) of the results are shown in FIG. 5 and the VE-cadherin concentrations in the portions represented by the dotted lines in FIG. 5 are shown in FIG. 6. With reference to FIG. 6, 10 randomly selected cells were measured to determine the fluorescence intensity of single cells and thus quantify VE-cadherin.
VE-cadherin, which is a protein that mediates adherens junction, was analyzed to evaluate adherens junction.

SMILES | changes in intracellular Ca^2+ (VEGF-induced) compared to control [1] | FITC-dextran diffused into lower chamber (cell permeability) / adherens junction disruption due to VEGF [2] | β-catenin concentration / adherens junction disruption due to VEGF (β-catenin) | ROS concentration (VEGF-induced) compared to control [3] | VE-cadherin concentration / adherens junction disruption due to VEGF (VE-cadherin)
NCCSSCCN [cystamine] | intracellular Ca^2+ elevation was caused | the effect of preventing the adherens junction disruption was also observed | the effect of preventing the adherens junction disruption was also observed | ROS concentration was increased | the effect of preventing the adherens junction disruption was also observed
CN(C)c1cccc2c(S(=O)(=O)NCCCCCN)cccc12 [MDC] | intracellular Ca^2+ elevation was caused | the effect of preventing the adherens junction disruption was also observed | the effect of preventing the adherens junction disruption was also observed | ROS concentration was increased | the effect of preventing the adherens junction disruption was also observed
Cc1c(C)c2c(c(C)c1O)CCC(C)(C(=O)O)O2 (stereo not shown) [Trolox] | intracellular Ca^2+ elevation was caused | the effect of preventing the adherens junction disruption was also observed | the effect of preventing the adherens junction disruption was also observed | no significant ROS concentration increase was observed | the effect of preventing the adherens junction disruption was also observed
CC(=O)N[C@@H](CS)C(=O)O [NAC] | intracellular Ca^2+ elevation was caused | the effect of preventing the adherens junction disruption was also observed | the effect of preventing the adherens junction disruption was also observed | no significant ROS concentration increase was observed | the effect of preventing the adherens junction disruption was also observed
CC(=O)OCOC(=O)CN(CC(=O)OCOC(C)=O)c1ccccc1OCCOc1ccccc1N(CC(=O)OCOC(C)=O)CC(=O)OCOC(C)=O [BAPTA-AM] | no significant changes in intracellular Ca^2+ | the effect of preventing the adherens junction disruption was also observed | the effect of preventing the adherens junction disruption was also observed | no significant ROS concentration increase was observed | the effect of preventing the adherens junction disruption was also observed
